Data as given in US7479489B2, “Heterocyclic antiviral compounds” (Roche Palo Alto LLC, priority 2004, dated 2009).

Key:
HCV NS5B570n-BK = biological target: T1, HCV NS5B570n-BK (Hepatitis C virus genotype 1b, UniProt P26663); experiment: HCV NS5B RNA polymerase activity; assay type: biochemical, HCV BK strain
T1 construct: His tag (N); made in house; host or cells: E. coli strain M15
Description: The enzymatic activity of HCV NS5B570n-BK is measured as incorporation of radiolabeled nucleotide monophosphates into acid insoluble RNA products. Unincorporated radiolabel substrate is removed by filtration and scintillant is added to the washed and dried filter plate containing radiolabeled RNA product. The light emitted by the scintillant is proportional to the amount of RNA product generated by NS5B570n-BK at the endpoint of the reaction.
The N-terminally histidine tagged HCV polymerase, derived from HCV BK strain, genotype 1b (NS5B570n-BK) contains a 21 amino acid deletion at the C-terminus relative to the full-length HCV polymerase and is purified from E. coli strain M15. The construct containing the coding sequence of HCV BK strain amino acid residues 2421-2999 (GenBank accession number M58335) downstream of a […] promoter expression cassette was inserted into plasmid constructs. The plasmid constructs are transformed in E. coli and colonies are inoculated and grown overnight in 10 L of Terrific broth (Tartoff and Hobbs) supplemented with 100 μg/mL ampicillin at 37° C. Protein expression is induced by addition of 1 mM isopropyl-β-D-thiogalactopyranoside (IPTG), when optical densities reaches between 1.5 and 3.5 OD600 and the culture is then incubated for 16- to 18 h at 22° C. NS5B570n-BK is purified to homogeneity using a three step protocol including subsequent column chromatography on Ni-NTA, SP-Sepharose HP and Superdex 75 resins.
Each 50 μl enzymatic reaction contains 8:4 μg/mL polyA:oligo U16 (template:primer), 20 nM or 200 nM NS5B570n-BK enzyme, 1 μCi of tritiated UTP (Perkin Elmer catalog no. TRK412; specific activity: 30 to 60 Ci/mmol; stock solution concentration from 7.5×10^−5 M to 20.6×10^−6 M), 40 mM Tris-HCl pH 8.0, 2 to 40 mM NaCl, 4 mM DTT (dithiothreitol), 4 mM MgCl2, and 5 μl of compound serial diluted in DMSO. Reaction mixtures are assembled in MADVNOB 96-well filter plates (Millipore Co.) and incubated for 2 h at 30° C. Reactions are stopped by addition of 10% (v/v) trichloroacetic acid and incubated for 40 min at 4° C. Reactions are filtered, washed with 8 reaction volumes of 10% (v/v) trichloroacetic acetic acid, 4 reaction volumes of 70% (v/v) ethanol, air dried, and 25 μl of scintillant (Microscint 20, Perkin-Elmer) is added to each reaction well.
The amount of light emitted from the scintillant is converted to counts per minute (CPM) on a Topcount® plate reader (Perkin-Elmer, Energy Range: Low, Efficiency Mode: Normal, Count Time: 1 min, Background Subtract: none, Cross talk reduction: Off).
Data is analyzed with GraphPad® Prism® and/or Microsoft® Excel®. The reaction in the absence of enzyme is used to determine the background signal, which is subtracted from the enzymatic reactions. Positive control reactions are performed in the absence of compound, from which the background corrected activity is set as 100% polymerase activity. All data is expressed as a percentage of the positive control. The compound concentration at which the enzyme-catalyzed rate of RNA synthesis is reduced by 50% (IC50) is calculated by fitting equation (i) to
[formula] the data, where “Y” corresponds to the relative enzyme activity (in %), “% Min” is the residual relative enzymatic activity at saturating compound concentration, “% Max” is the maximal relative enzymatic activity compared to positive control, X corresponds to the compound concentration, and “S” is the Hill coefficient (or slope).
Alternatively the assay can be run as described above with the following modifications. The polyA:oligo U16 homopolymeric RNA template:primer is replaced by the heteropolymeric cIRES RNA template at concentrations of 20 nM or 200 nM. The cIRES RNA template is derived from the complementary sequence of the Internal Ribosome Entry site of the HCV genome (nucleotide 1 through 378 at the 5′-end of the negative strand of the HCV genome (EMBL database accession number AJ238799). The reaction mixture is supplemented with 1 μM ATP, CTP, and GTP […]

[1] = system: Renilla luciferase HCV replicon cells (2209-23); experiment: Renilla luciferase assay (HCV replicon); assay type: cell-based; details: 72 h; replicon level, three days incubation

T1 sequence (P26663 2421-2989): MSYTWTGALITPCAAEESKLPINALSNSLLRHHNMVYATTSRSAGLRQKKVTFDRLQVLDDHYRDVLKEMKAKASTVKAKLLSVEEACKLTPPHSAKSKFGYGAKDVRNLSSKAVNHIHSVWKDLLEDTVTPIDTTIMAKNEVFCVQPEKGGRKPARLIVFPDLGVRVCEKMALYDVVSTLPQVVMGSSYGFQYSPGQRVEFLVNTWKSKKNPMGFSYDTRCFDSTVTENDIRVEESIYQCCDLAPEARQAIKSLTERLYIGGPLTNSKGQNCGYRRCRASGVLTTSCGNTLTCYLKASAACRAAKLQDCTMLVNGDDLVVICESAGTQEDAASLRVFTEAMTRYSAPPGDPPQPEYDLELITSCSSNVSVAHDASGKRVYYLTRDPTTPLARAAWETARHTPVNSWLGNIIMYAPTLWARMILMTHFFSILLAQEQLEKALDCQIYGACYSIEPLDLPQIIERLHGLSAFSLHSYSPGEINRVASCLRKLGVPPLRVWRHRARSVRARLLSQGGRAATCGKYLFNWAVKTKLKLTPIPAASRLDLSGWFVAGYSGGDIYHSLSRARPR

| SMILES | IC50 (HCV NS5B570n-BK; 200 nM polyA: oligo U16) | IC50 [1] | IC50 (HCV NS5B570n-BK; 20 nM cIRES) | IC50 (HCV NS5B570n-BK; 200 nM cIRES) | melting point |
| --- | --- | --- | --- | --- | --- |
| NC(=O)COc1ccc2c(c1)S(=O)(=O)C=C(c1c(O)c3cc(F)ccc3n(Cc3ccc(F)cc3)c1=O)N2 [Compound I-20, 2-{3-[6-Fluoro-1-(4-fluoro-benzyl)-4-hydroxy-2-oxo-1,2-dihydro-quinolin-3-yl]-1,1-dioxo-1,4-dihydro-1λ^6-benzo[1,4]thiazin-7-yloxy}-acetamide] | 0.15 µM | 1.05 µM |  |  |  |
| CS(=O)(=O)Nc1ccc2c(c1)S(=O)(=O)C=C(c1c(O)c3cc(F)ccc3n(Cc3ccc(F)cc3)c1=O)N2 [Compound I-24, N-{3-[6-Fluoro-1-(4-fluoro-benzyl)-4-hydroxy-2-oxo-1,2-dihydro-quinolin-3-yl]-1,1-dioxo-1,4-dihydro-1λ^6-benzo[1,4]thiazin-7-yl}-methanesulfonamide] | 0.151 µM | 0.013 µM | 0.0055 µM | 0.067 µM |  |
| CCS(=O)(=O)Nc1ccc2c(c1)S(=O)(=O)C=C(c1c(O)c3cc(F)ccc3n(CCC3CC3)c1=O)N2 [Compound I-32, ethanesulfonic acid {3-[1-(2-cyclopropyl-ethyl)-6-fluoro-4-hydroxy-2-oxo-1,2-dihydro-quinolin-3-yl]-1,1-dioxo-1,4-dihydro-1λ6-benzo[1,4]thiazin-7-yl}-amide] | 0.22 µM | 0.005 µM | 0.0073 µM |  | 140 to 142 °C |
| NS(=O)(=O)Nc1ccc2c(c1)S(=O)(=O)C=C(c1c(O)c3cc(F)ccc3n(CCC3CC3)c1=O)N2 [Compound I-40, 1-{3-[1-(2-cyclopropyl-ethyl)-6-fluoro-4-hydroxy-2-oxo-1,2-dihydro-quinolin-3-yl]-1,1-dioxo-1,4-dihydro-1λ^6-benzo[1,4]thiazin-7-yl}-sulfamide] | 0.35 µM | 0.009 µM |  |  | 183 to 186 °C |
| CS(=O)(=O)Nc1ccc2c(c1)S(=O)(=O)C=C(c1c(O)c3cc(F)c(F)cc3n(Cc3ccc(F)cc3)c1=O)N2 [Compound I-69, N-{3-[6,7-Difluoro-1-(4-fluoro-benzyl)-4-hydroxy-2-oxo-1,2-dihydro-quinolin-3-yl]-1,1-dioxo-1,4-dihydro-1λ^6-benzo[1,4]thiazin-7-yl}-methanesulfonamide] |  | 0.015 µM | 0.0144 µM |  |  |
| CC(C)(C)[C@H]1C(O)=C(C2=CS(=O)(=O)c3cc(NS(C)(=O)=O)ccc3N2)C(=O)N1Cc1ccc(F)c(Cl)c1 [II-11, N-{3-[(S)-5-tert-Butyl-1-(3-chloro-4-fluoro-benzyl)-4-hydroxy-2-oxo-2,5-dihydro-1H-pyrrol-3-yl]-1,1-dioxo-1,4-dihydro-1λ^6-benzo[1,4]thiazin-7-yl}-methanesulfonamide] |  | 0.009 µM | 0.0046 µM |  |  |
